pKi: −log10 of the molar value.
Experiments:
[1] = biological target: T1, Adenosine receptor A1 (Rattus norvegicus, UniProt P25099); assay: biochemical
T1 sequence (P25099 whole entry): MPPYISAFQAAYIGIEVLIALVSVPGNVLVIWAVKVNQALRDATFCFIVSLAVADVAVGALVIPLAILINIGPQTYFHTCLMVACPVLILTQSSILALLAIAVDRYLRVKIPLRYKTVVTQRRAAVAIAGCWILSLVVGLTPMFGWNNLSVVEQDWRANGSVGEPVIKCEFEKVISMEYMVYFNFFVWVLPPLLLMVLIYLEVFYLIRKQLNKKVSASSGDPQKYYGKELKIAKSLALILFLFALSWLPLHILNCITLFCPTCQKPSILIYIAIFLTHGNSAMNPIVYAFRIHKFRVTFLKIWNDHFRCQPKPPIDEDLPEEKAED

[2] = biological target: Adenosine A2 receptor (Rattus norvegicus, UniProt P29276+P30543)

| SMILES | pKi [1] | Ki [2] [nM] |
| --- | --- | --- |
| OC[C@H]1OC(n2cnc3c(NC4CCCCCC4)nc(O)nc32)[C@H](O)[C@@H]1O (some centres undefined) | 7.15 | 6000 |
| OC[C@H]1OC(n2cnc3c(NC4CCC4)nc(O)nc32)[C@H](O)[C@@H]1O (some centres undefined) | 7.26 | 15000 |
| OC[C@H]1OC(n2cnc3c(NC4CCC5CCCCC5C4)nc(O)nc32)[C@H](O)[C@@H]1O (some centres undefined) | 4.52 | 140000 |

Continued by rising pKi [1], values first:

| pKi [1] | Ki [2] [nM] | SMILES |
| --- | --- | --- |
| 7.40 | 15000 | OC[C@H]1OC(n2cnc3c(NC4CCCCC4)nc(O)nc32)[C@H](O)[C@@H]1O (some centres undefined) |
| 7.46 | 80000 | OC[C@H]1OC(n2cnc3c(NC4CC5CCC4C5)nc(O)nc32)[C@H](O)[C@@H]1O (some centres undefined) |
| 7.70 | 40000 | OC[C@H]1OC(n2cnc3c(NC4CCCC4)nc(I)nc32)[C@H](O)[C@@H]1O (some centres undefined) |
| 7.72 | 7500 | OC[C@H]1OC(n2cnc3c(NC4CCCC4)nc(O)nc32)[C@H](O)[C@@H]1O (some centres undefined) |

Source: ChEMBL document CHEMBL1126005 (Bioorg Med Chem Lett, 1991)
